Calls of active or inactive are those of the source. No cut-off for these calls is given here.
Key:
[1] = target: Histamine H4 receptor (Homo sapiens, UniProt Q9H3N8)
[2] = target: T1, Histamine H2 receptor (Homo sapiens, UniProt P25021); conditions: Sf9, Membrane, filed as agonist, time 90.0 min
[3] = target: T1, Histamine H2 receptor; assay: Displacement of [3H]UR-DE257 from human histamine H2 receptor expressed in sf9 insect cell membranes co-expressing GSalphaS incubated for 60 mins by microbeta scintillation counting method; set-up: species or system Membrane
[4] = Dissociation constant, pKa of compound in NaOH; format: physicochemical; conditions: NaOH solution
[5] = target: Histamine H3 receptor (Homo sapiens, UniProt Q9Y5N1); assay: Displacement of [3H]UR-P129 from human histamine H3 receptor expressed in sf9 insect cell membranes co-expressing Galphai2/Gbeta1gamma2 incubated for 60 mins by microbeta scintillation counting method; set-up: species or system Membrane
[6] = target: T1, Histamine H2 receptor; assay: Agonist activity at human histamine receptor expressed in sf9 insect cell membranes co-exprssing GsalphaS incubated for 90 mins [35S]GTPgammaS binding based microbeta scintillation counting analysis; format: functional, Membrane
[7] = target: Histamine H1 receptor (Homo sapiens, UniProt P35367); assay: Displacement of [3H]mepyramine from human histamine H1 receptor expressed in sf9 insect cell membranes co-expressing RGS4 incubated for 60 mins by microbeta scintillation counting method; set-up: species or system Membrane
[8] = target: T1, Histamine H2 receptor; assay: Agonist activity at human histamine H2 receptor expressed in sf9 insect cell membranes co-exprssing GsalphaS assessed as intrinsic activity at >=30 uM incubated for 90 mins [35S]GTPgammaS binding based microbeta scintillation counting analysis relative to histamine; format: functional; conditions: Membrane, filed as agonist, dose microM >=30, time 90.0 min
[9] = target: T1, Histamine H2 receptor; assay: Agonist activity at human histamine H2 receptor expressed in HEK293T cells co-expressing ELucC by beta arrestin2 recruitment assay; format: functional, cell-based
[10] = target: T1, Histamine H2 receptor; assay: Agonist activity at human histamine H2 receptor expressed in HEK293T cells co-expressing ELucC assessed as intrinsic activity at >= 30 uM by beta arrestin2 recruitment assay relative to histamine; format: functional, cell-based; conditions: filed as agonist, dose microM >=30
[11] = target: T2, D(2) dopamine receptor (Homo sapiens, UniProt P14416); assay: Displacement of [3H]N-methylspiperone from human D2L receptor expressed in HEK293T cells co-expressing CRE-Luc incubated for 60 mins by microbeta scintillation counting method; format: cell-based
[12] = target: T3, D(3) dopamine receptor (Homo sapiens, UniProt P35462); assay: Agonist activity at […] expressed in HEK293T cells co-expressing ELucC by beta arrestin2 recruitment assay; format: functional, cell-based
[13] = target: T2, D(2) dopamine receptor; format: functional, cell-based, HEK293T
[14] = target: T3, D(3) dopamine receptor; assay: Displacement of [3H]N-methylspiperone from human D3 receptor expressed in HEK293T cells co-expressing CRE-Luc incubated for 60 mins by microbeta scintillation counting method; format: cell-based
[15] = Dissociation constant, pKa of compound in aqueous solution in presence of EtOH by spectrometric method; conditions: aqueous solution with EtOH
[16] = target: Histamine H2 receptor (Cavia porcellus) (UniProt P47747); assay: (§1) Agonist activity at guinea pig right atrium histamine H2 receptor assessed as increase in heart rate incubated for 30 mins in presence of cimetidine; format: functional, tissue-based; conditions: Right cardiac atrium
[17] = Dissociation constant, pKa of compound in aqueous solution; format: physicochemical
[18] = Dissociation constant, pKa of compound in aqueous solution in presence of HCL; format: physicochemical; conditions: aqueous solution with HCl
[19] = target: Histamine H2 receptor (Cavia porcellus, UniProt P47747); assay: as §1; format: functional, tissue-based, Right cardiac atrium
[20] = target: Histamine H2 receptor (Cavia porcellus) (UniProt P47747); assay: Agonist activity at guinea pig right atrium histamine H2 receptor assessed as intrinsic activity incubated for 30 mins in presence of cimetidine relative to histamine; format: functional, tissue-based; conditions: Right cardiac atrium, filed as agonist
[21] = Dissociation constant, pKa2 of compound in HCL or HCL salt; format: physicochemical; conditions: HCl or HCl salt solution
[22] = Dissociation constant, pKa1 of compound in HCL or HCL salt; format: physicochemical; conditions: HCl or HCl salt solution

T2 sequence (P14416 whole entry): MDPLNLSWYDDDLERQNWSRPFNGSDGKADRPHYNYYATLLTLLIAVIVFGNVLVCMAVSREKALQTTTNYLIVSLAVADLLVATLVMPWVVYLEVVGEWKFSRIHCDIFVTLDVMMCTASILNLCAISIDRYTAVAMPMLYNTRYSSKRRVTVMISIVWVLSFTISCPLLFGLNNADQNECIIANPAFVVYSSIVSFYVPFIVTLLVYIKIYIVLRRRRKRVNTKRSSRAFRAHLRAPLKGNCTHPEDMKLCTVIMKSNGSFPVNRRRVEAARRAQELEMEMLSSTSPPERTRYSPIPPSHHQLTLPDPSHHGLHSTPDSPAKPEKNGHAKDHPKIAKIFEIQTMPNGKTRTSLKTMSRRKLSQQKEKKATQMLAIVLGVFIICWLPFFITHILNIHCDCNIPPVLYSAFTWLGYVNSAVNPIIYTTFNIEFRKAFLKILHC
Sequence of Histamine H3 receptor (Q9Y5N1 whole entry): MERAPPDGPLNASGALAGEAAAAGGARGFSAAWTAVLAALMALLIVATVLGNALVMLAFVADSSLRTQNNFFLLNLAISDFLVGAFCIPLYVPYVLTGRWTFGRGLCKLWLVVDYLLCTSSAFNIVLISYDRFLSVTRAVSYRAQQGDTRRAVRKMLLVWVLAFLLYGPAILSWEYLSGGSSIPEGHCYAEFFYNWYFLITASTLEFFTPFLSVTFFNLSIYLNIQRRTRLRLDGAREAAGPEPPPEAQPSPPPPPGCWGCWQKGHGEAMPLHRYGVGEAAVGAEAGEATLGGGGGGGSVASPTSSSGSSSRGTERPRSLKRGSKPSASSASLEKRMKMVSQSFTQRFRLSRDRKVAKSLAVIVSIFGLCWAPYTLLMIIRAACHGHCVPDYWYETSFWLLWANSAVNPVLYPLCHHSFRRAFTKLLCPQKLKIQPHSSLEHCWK
T1 sequence (P25021 whole entry): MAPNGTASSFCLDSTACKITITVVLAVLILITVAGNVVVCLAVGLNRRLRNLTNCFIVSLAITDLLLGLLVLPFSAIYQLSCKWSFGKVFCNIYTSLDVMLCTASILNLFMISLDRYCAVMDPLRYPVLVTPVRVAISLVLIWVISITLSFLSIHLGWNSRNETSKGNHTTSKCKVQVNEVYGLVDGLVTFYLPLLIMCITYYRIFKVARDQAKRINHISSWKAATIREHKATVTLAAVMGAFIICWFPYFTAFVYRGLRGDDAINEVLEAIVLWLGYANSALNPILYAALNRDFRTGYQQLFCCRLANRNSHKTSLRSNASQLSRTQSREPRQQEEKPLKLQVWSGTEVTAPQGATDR
T3 sequence (P35462 whole entry): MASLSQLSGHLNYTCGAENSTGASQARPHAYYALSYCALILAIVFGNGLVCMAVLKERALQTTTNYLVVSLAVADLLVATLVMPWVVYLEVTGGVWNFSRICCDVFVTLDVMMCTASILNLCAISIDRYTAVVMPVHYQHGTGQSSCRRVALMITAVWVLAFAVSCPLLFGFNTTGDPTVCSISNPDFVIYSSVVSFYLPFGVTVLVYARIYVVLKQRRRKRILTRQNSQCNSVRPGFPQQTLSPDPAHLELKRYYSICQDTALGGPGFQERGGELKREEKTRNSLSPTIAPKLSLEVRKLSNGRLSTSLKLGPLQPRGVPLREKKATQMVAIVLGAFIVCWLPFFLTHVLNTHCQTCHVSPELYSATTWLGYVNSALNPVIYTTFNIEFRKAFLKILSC
Sequence of Histamine H1 receptor (P35367 whole entry): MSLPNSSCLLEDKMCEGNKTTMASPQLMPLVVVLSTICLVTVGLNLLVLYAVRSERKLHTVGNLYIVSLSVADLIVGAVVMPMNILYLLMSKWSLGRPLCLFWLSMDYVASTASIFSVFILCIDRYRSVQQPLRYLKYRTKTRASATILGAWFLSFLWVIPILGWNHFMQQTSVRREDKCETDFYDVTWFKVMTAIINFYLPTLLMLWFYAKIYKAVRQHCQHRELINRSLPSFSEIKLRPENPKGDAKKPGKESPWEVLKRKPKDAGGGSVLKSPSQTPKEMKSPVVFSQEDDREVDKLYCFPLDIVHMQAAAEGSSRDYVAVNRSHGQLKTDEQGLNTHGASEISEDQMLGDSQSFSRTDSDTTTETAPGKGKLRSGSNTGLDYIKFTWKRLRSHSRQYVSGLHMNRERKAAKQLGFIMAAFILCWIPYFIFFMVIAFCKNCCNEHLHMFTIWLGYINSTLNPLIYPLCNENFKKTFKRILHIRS
Sequence of Histamine H2 receptor (Cavia porcellus, UniProt P47747) (P47747 whole entry): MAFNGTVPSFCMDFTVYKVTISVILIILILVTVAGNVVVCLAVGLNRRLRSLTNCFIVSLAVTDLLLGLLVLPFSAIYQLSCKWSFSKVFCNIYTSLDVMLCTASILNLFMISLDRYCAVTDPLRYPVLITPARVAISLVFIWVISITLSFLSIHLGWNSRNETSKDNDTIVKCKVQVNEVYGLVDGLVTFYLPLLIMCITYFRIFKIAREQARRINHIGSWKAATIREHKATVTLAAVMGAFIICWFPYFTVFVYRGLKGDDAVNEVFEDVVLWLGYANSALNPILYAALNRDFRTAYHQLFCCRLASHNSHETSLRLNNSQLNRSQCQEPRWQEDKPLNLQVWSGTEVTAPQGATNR
Sequence of Histamine H2 receptor (Cavia porcellus) (P47747 whole entry): as above

Structure (SMILES) | Ki [1] [nM] | Ki [3] [nM] | Ki [5] [nM] | EC50 [6] [nM] | Ki [7] [nM] | Intrinsic activity [8] | EC50 [9] [nM] | Ki [14] [nM] | other results
CCCNC(=O)/N=C(\N)NCC |  |  |  |  |  |  |  |  | pKa [4]: 8.31
Cc1nc(N)sc1CCCN/C(N)=N/C(=O)NCC(C)CCc1ccccc1 (stereo not given) | 3240 | 63.1 | 9120 | 29.5 | 1350 | 0.69 | 355 | 45.7 | Ki [11]: 355 nM; EC50 [12]: 891 nM; EC50 [13]: 5370 nM; Intrinsic activity [10]: 0.2
Cc1nc(N)sc1CCCN/C(N)=N/C(=O)NCC(C)c1ccc(C(C)C)cc1 (stereo not given) | 2630 | 148 | 7940 | 34.7 | 4900 | 0.59 | 282 |  | Intrinsic activity [10]: 0.25
Cc1nc(N)sc1C |  |  |  |  |  |  |  |  | pKa [4]: 6.28; pKa [15]: 6.29
C[C@@H](NC(=O)/N=C(\N)NCCCc1ccccc1)c1ccccc1 |  |  |  |  |  |  |  |  | pKa [4]: 7.96
Cc1nc(N)sc1CCCN/C(N)=N/C(=S)NCC(c1ccccc1)c1ccccc1 | 21400 | 1450 | 46800 |  | 44700 |  |  |  | pEC50 [16]: inactive
Cc1csc(N)n1 |  |  |  |  |  |  |  |  | pKa [4]: 5.77; pKa [17]: 5.95; pKa [18]: 4.64
CCCCCCNC(=O)/N=C(\N)NCCCc1sc(N)nc1C | 8130 | 28.8 | 5620 | 38.9 | 7760 | 0.6 | 85.1 | 14.1 | EC50 [19]: 15.8 nM; Ki [11]: 562 nM; Intrinsic activity [20]: 0.95; EC50 [12]: 23.4 nM; EC50 [13]: 1740 nM

More lines, main results first:

Ki [1] [nM] | Ki [3] [nM] | Ki [5] [nM] | EC50 [6] [nM] | Ki [7] [nM] | Intrinsic activity [8] | EC50 [9] [nM] | Ki [14] [nM] | Structure (SMILES) | other results
> 100000 | 5250 |  |  |  |  |  |  | CCCNC(=O)/N=C(\N)Nc1cccc(-c2csc(N)n2)c1 | pKb [2]: 4.91
5890 | 102 | 11700 | 30.9 | 5890 | 0.52 | 158 |  | Cc1nc(N)sc1CCCN/C(N)=N/C(=O)NCC(c1ccccc1)C(C)C (stereo not given) | Intrinsic activity [10]: 0.11
64600 | 372000 |  |  |  |  |  |  | N/C(=N\C(=O)Nc1ccccc1)Nc1cccc(-c2csc(N)n2)c1 | pKb [2]: 4.76
1910 | 39.8 | 10000 | 21.9 | 2340 | 0.65 | 224 | 43.7 | Cc1nc(N)sc1CCCN/C(N)=N/C(=O)NCC(C)C1CCCCC1 (stereo not given) | Ki [11]: 263 nM; EC50 [12]: 263 nM; EC50 [13]: 3240 nM; Intrinsic activity [10]: 0.4
9550 | 692 | 11000 |  |  |  |  | 1290 | CCCCCCNC(=O)/N=C(\N)Nc1cccc(-c2csc(N)n2)c1 | pKb [2]: 6.14; Ki [11]: 2510 nM
13500 | 4470 |  |  |  |  |  |  | N/C(=N\C(=O)NC1CCCCC1)Nc1cccc(-c2csc(N)n2)c1 | pKb [2]: 5.4
13500 | 17.8 | 43700 |  | 8710 |  | 45.7 | 6.17 | Cc1nc(N)sc1CCCN/C(N)=N/C(=O)N[C@H](C)c1ccccc1 | EC50 [19]: 7.59 nM; pKa [21]: 7.47; EC50 [12]: 15.5 nM; pKa [22]: 4.68

From ChEMBL document CHEMBL4813951 (Eur J Med Chem, 2021)
